SMILES strings stand for the structures. Converted amounts (≈) assume the structure as drawn. The source made the active and inactive calls. The calls are words filed in the database; no cut-off is given here.

The test system of experiment [1] is Mycobacteroides abscessus. The experiment is described as follows: Antimicrobial activity against Mycobacterium abscessus 390S assessed as inhibition of biofilm formation at 64 ug/ml after 24 hrs. It counts as functional.
Experiment [2] relates to Mycobacteroides abscessus. Briefly: Antimicrobial activity against Mycobacterium abscessus 390S assessed as inhibition of planktonic cell growth in depleted medium. It counts as functional.
In experiment [3] the test system is Mycobacteroides abscessus. The experiment is described as follows: Antimicrobial activity against Mycobacterium abscessus 390S. It counts as functional.
The subject of experiment [4] is Mycobacteroides abscessus. Briefly: Antimicrobial activity against Mycobacterium abscessus 390R after 96 hrs. It counts as functional.
The test system of experiment [5] is Mycobacteroides abscessus. Briefly: Antimicrobial activity against Mycobacterium abscessus 390S assessed as inhibition of planktonic cell growth in replete medium. It counts as functional.
The subject of experiment [6] is Mycobacteroides abscessus. The experiment is described as follows: Antimicrobial activity against Mycobacterium abscessus 390S assessed as inhibition of resuspended biofilm formation in replete medium. It counts as functional.
Experiment [7] relates to Mycobacteroides abscessus. Briefly: Bacteriostatic activity against Mycobacterium abscessus 390V infected in human monocyte-derived macrophage at 10 times MIC. It counts as functional, organism-based.
In experiment [8] the test system is Mycolicibacterium fortuitum. Briefly: Antimicrobial activity against Mycobacterium fortuitum. It counts as functional.
Experiment [9] has as its system Mycobacteroides abscessus. The experiment is described as follows: Antimicrobial activity against Mycobacterium abscessus 390V after 96 hrs. It counts as functional.
For experiment [10], the system named is Mycobacteroides abscessus. Briefly: Bacteriostatic activity against Mycobacterium abscessus 390S assessed as inhibition of planktonic cell growth up to 1024 ug/ml after 24 hrs. It counts as functional, organism-based.
The subject of experiment [11] is Mycobacteroides abscessus. Briefly: Bacteriostatic activity against Mycobacterium abscessus 390V infected in human monocyte-derived macrophage assessed as inhibition of planktonic cell growth at 4 ug/ml treated 24 hrs postinfection. It counts as functional, organism-based.
Experiment [12] relates to Mycobacteroides abscessus. The experiment is described as follows: Bacteriostatic activity against Mycobacterium abscessus 390R infected in human monocyte-derived macrophage assessed as inhibition of planktonic cell growth at 4 ug/ml treated 24 hrs postinfection. It counts as functional, organism-based.
Experiment [13] relates to Mycobacteroides abscessus. Briefly: Antimicrobial activity against Mycobacterium abscessus 390S assessed as inhibition of biofilm formation up to 128 ug/ml treated during lag-phase measured after 24 hrs. It counts as functional, organism-based.
The subject of experiment [14] is Mycobacteroides abscessus. Briefly: Antimicrobial activity against Mycobacterium abscessus 390S after 96 hrs. It counts as functional.
Experiment [15] relates to Mycobacteroides abscessus. The experiment is described as follows: Bacteriostatic activity against Mycobacterium abscessus 390S infected in human monocyte-derived macrophage assessed as inhibition of planktonic cell growth at 4 ug/ml treated 24 hrs postinfection. It counts as functional, organism-based.
The subject of experiment [16] is Mycobacteroides abscessus. The experiment is described as follows: Antimicrobial activity against Mycobacterium abscessus 390S assessed as inhibition of biofilm formation up to 512 ug/ml after 24 hrs. It counts as functional.
Experiment [17] relates to Mycobacteroides abscessus. The experiment is described as follows: Antimicrobial activity against Mycobacterium abscessus 390S infected in human monocyte-derived macrophage assessed as reduction in viable bacteria count at 10 times MIC by […]. It counts as functional, organism-based.
Experiment [18] has as its system Mycobacteroides abscessus. Briefly: Antimicrobial activity against Mycobacterium abscessus 390S assessed as inhibition of biofilm formation up to 128 ug/ml treated during mid log-phase. It counts as functional.

In general, MIC refers to the least concentration at which growth counts as inhibited. For `NCC[C@H](O)C(=O)N[C@@H]1C[C@H](N)[C@@H](O[C@H]2O[C@H](CN)[C@@H](O)[C@H](O)[C@H]2O)[C@H](O)[C@H]1O[C@H]1O[C@H](CO)[C@@H](O)[C@H](N)[C@H]1O` [AMIKACIN], in experiment [1], the log10cfu is recorded as 1.1. In addition, the MBC in [2] was 128 µg/mL (≈ 219 µM); in [3], 64 µg/mL (≈ 109 µM); in experiment [5], 32 µg/mL (≈ 54.6 µM); in experiment [6], 64 µg/mL (≈ 109 µM). The compound also returned an MIC in experiment [4] of 2 µg/mL (≈ 3.42 µM). The outcome in experiment [7] was Active.

For the compound `CO[C@@]1(NC(=O)Cc2cccs2)C(=O)N2C(C(=O)O)=C(COC(N)=O)CS[C@@H]21` [CEFOXITIN], the MIC in experiment [8] was found to be 6.25 µg/mL (≈ 14.6 µM); in [9], 8 µg/mL (≈ 18.7 µM). Also, the result in experiment [10] and in experiment [7] was Active.

Take `CC[C@H]1OC(=O)[C@H](C)[C@@H](O[C@H]2C[C@@](C)(OC)[C@@H](O)[C@H](C)O2)[C@H](C)[C@@H](O[C@@H]2O[C@H](C)C[C@H](N(C)C)[C@H]2O)[C@](C)(OC)C[C@@H](C)C(=O)[C@H](C)[C@@H](O)[C@]1(C)O` [CLARITHROMYCIN]: the outcome in [11], in experiment [12], in experiment [15] and in experiment [17] was Active. Also, the outcome in experiment [13] was inactive. Further, the MBC turned out to be 256 µg/mL (≈ 342 µM) in [2], 16 µg/mL (≈ 21.4 µM) in experiment [3], 16 µg/mL (≈ 21.4 µM) in [5] and 256 µg/mL (≈ 342 µM) in experiment [6]. In experiment [14], this compound gave an MIC of 0.25 µg/mL (≈ 0.334 µM). Also, the log10cfu was determined as 0.6 in [16] and 1 in experiment [18].

(Values after ChEMBL document CHEMBL1255361, “Differential antibiotic susceptibility of Mycobacterium abscessus variants in biofilms and macrophages compared to that of planktonic bacteria” (2008).)
